Results from patent publication US20120053197A1, “TRICYCLIC PYRIDINE DERIVATIVES, MEDICAMENTS CONTAINING SUCH COMPOUNDS, THEIR USE AND PROCESS FOR THEIR PREPARATION” (BOEHRINGER INGELHEIM INTERNATIONAL GMBH, priority 2010, published 2012).

Molecular target: T1, recombinant human CETP (Homo sapiens, UniProt P11597)
T1 construct: made in house; host or cells: CHO cells (protein secreted into conditioned medium)
T1 sequence (P11597 18-493): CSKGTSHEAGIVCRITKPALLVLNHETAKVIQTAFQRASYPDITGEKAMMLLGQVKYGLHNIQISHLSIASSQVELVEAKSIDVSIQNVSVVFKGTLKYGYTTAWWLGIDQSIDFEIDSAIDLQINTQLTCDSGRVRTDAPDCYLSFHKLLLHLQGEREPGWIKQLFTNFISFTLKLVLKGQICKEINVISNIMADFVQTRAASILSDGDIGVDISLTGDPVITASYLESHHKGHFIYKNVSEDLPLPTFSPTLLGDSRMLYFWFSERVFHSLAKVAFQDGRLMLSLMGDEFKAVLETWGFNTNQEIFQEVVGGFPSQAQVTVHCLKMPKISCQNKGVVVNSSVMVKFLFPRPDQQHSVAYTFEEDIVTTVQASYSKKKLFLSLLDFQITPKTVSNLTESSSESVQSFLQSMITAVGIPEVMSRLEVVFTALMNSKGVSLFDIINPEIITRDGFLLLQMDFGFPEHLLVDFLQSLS
Assay: CETP in vitro fluorometric assay (Roar Biomedical), cholesterol ester transfer from HDL to LDL
Type: biochemical
Details: recombinant human CETP from CHO cells; 3 hours at 37° C.; fluorescence ex 485 nm / em 535 nm; compound concentrations between 1 nM and 30 μM; read-out: IC50 values for inhibition of CETP
Description: CETP inhibitory activity of compounds of the present invention can be determined in a fluorometric assay puchased from Roar Biomedical, Inc. (New York, N.Y., USA). […] Recombinant human CETP was partially purified from medium conditioned by CETP expressing CHO cells. In a 384 well format 2.5 μl of compound solution in DMSO was combined with 2 μl of donor solution, 2 μl of acceptor solution and 0.8 μl of recombinant human CETP solution in a total volume of 100 μl with assay buffer and incubated for 3 hours at 37° C. The fluorescence intensity was measured at excitation wavelength of 485 nm and emission wavelength of 535 nm. IC50 values are calculated from dose effect curves from compound concentrations between 1 nM and 30 μM.

IC50: 62 nM
Structure (SMILES): CC(C)(C)c1ccc([C@H]2OC3(CCCC3)c3c2c(C2CCOCC2)nc2c3[C@@H](O)CC(C)(C)[C@H]2O)cc1 [Example 4, (3′R,6′R,9′S)-3′-(4-tert-butylphenyl)-7′,7′-dimethyl-4′-(tetrahydro-2H-pyran-4-yl)-6′,7′,8′,9′-tetrahydro-3′H-spiro[cyclopentane-1,1′-furo[3,4-c]quinoline]-6′,9′-diol]
